From patent US4885301A, “Purinone derivatives which have bronchodilator, vasodilator and anti-allergic activities” (Smith Kline & French Laboratories Limited, priority 1987, dated 1989)
Values belong to the compound of their own block, whether it stands above or below them.

Key:
[1] = tested on: PDE activity isolated from pig pulmonary arteries or aortas; experiment: Properties of PDE activity: substrate kinetics; type: biochemical
Method: (§1) Eight pig hearts/lungs were collected from the abattoir and kept on ice until the pulmonary arteries or aortas could be dissected and excess fat removed. 120 g of tissue was dissected. Unless otherwise stated all procedures were done at 4° C. Following dissection arteries were flash frozen in liquid nitrogen and stored at -70° C. until required. On the day of homogenisation, tissue was cooled with liquid nitrogen and broken into small pieces by striking with a hammer. The tissue was then homogenised in 15 mM BIS-TRIS, 1 μg/ml leupeptin and antipain, 2 μg/ml pepstatin A, 5 μM benzamidine, 2 mM EDTA (ethylenediaminetetraacetic acid) and 2 mM dithiothreitol, pH 6.5. Phenylmethanesulphonylfluoride (PMSF) was added to a final concentration of 50 μM just prior to homogenisation. The homogenate was then centrifuged for 20 minutes at 30,000 g. Supernatant was filtered firstly through glass wool and then a 0.45 μm filter. […] The column was washed with 150 mls of homogenisation buffer and PDE activities eluted with 150 ml of homogenisation buffer containing 100 mM sodium acetate. Six 25 ml fractions were collected, the flow rate throughout was 80 ml/hr.
Fractions 2 and 3 were pooled and BIS-TRIS, MgCl2, CaCl2 added to final concentrations of 50 mM, 7 mM and 5 mM respectively. PMSF, leupeptin, antipain and pepstatin A were also added at the concentrations described above for these components. […]

[2] = tested on: antigen-induced bronchoconstriction; experiment: Anti-allergic activity in vivo: ovalbumin-induced bronchoconstriction in sensitized anesthetized guinea pigs; design: species or system guinea pig (adult male albino Hartley); conditions: 100 μmol/kg intraduodenal
Method: Adult male albino Hartley strain guinea pigs weighing 400-600 g were actively sensitized to OA according to the procedure hereinbefore described. To measure pulmonary mechanics, a polyethylene catheter was inserted into the trachea of anesthetized (sodium pentobarbital, 35 mg/kg, i.p.) animals and airflow was measured via a heated pneumotachograph in combination with a differential pressure transducer connected to the pneumotachograph. Airflow and transpulmonary pressure signals were fed into an on-line pulmonary mechanics computer which integrated the flow signal to obtain tidal volume. Total pulmonary resistance (RL) and dynamic lung compliance (CDYN) were calculated at isovolumetric points according to the method of Amdur and Mead (Am. J. Physiol. 192:364-368, 1958).
A compound under test was dissolved in 25 mM NaHCO3 plus one drop of polyethylene glycol 400 to a concentration of 100 mM. Based on the weight of the animal, the appropriate amount of solution was removed and the volume brought up to 1 ml with 25 mM NaHCO3. For the intraduodenal administration of test compounds, a small midline incision was made in the abdomen, the duodenum was exposed, and a butterfly needle attached to plastic tubing was inserted. All solutions were adjusted to the same volume (1 ml) and administered through the butterfly needle and followed with 0.5 ml of distilled water. The needle was then removed and the abdominal incision was stapled to prevent heat loss.
Aerosols of OA were generated to deliver approximately 0.375 μl/breath. Pressure, flow rate and sensitivity were set such that a maximum pleural pressure of 20 cm water was attained during inhalation. One hour after the administration of the test compounds, quinea pigs were challenged with 5 inhalations of OA (0.5 mg/ml) via the tracheal cannula and changes in CDYN and RL were monitored for 10 minutes. […]
Results are expressed as a mean ± S.E. of 4 experiments. Statistical significance of differences between the means of control and drug-treated groups was determined using a unpaired Student's t test.

[3] = tested on: hindquarter vascular resistance; experiment: Vasodilatation in vivo: hindquarter blood flow in anaesthetised rats; design: species or system rat (male Wistar); conditions: Rattus norvegicus, iv, bolus i.v., read-out: EDHQ50 (dose required to produce a 50% increase in hindquarter blood flow)
Method: Male Wistar rats (300 g) were anaesthetised with a sodium 5-ethyl-5-(1-methylpropyl)-2-thiobarbiturate/sodium pentobarbitone mixture i.p. (62.5 and 22.5 mg/kg respectively). The trachea was cannulated and the rats breathed spontaneously air enriched with O2 (5 ml/min). Blood pressure was recorded from a carotid artery and a jugular vein was cannulated for the administration of compounds. The temperature of the animal was maintained at 37° C. by the use of an electric blanket. […] The perfusion circuit was primed with 5% bovine serum albumin dissolved in 0.9% sodium chloride solution, pH adjusted to 7.4. Initially the pump rate was set between 10 and 15 ml/min to match the hind quarter perfusion pressure to that of the systemic circulation. Once set the pressure remained unaltered for the rest of the experiment. A change in the speed of the pump (equivalent to hindquarter blood flow) was used to assess the changes in hindquarter vascular resistance.
All compounds were administered as a bolus i.v. and from the dose response curves the dose required to produce a 50% increase in hindquarter blood flow (EDHQ50) was determined in μmoles/kg.

[4] = tested on: U46619-induced bronchoconstriction; experiment: Bronchodilatation in vivo: U46619-induced bronchoconstriction in anaesthetised guinea-pigs; design: species or system guinea-pig (male Dunkin Hartley); conditions: Cavia porcellus, iv; i.v. bolus; U46619 infused i.v. 2.5 nmol/min; peak inhibition; read-out: BD50 (dose required to reduce the U46619-induced bronchoconstriction by 50%)
Method: Male guinea-pigs of the Dunkin Hartley strain (500-600 g) were anaesthetised with Sagatal (pentobarbital sodium) (60 mg/kg).
The dose of compound required to reduce the U46619-induced bronchoconstriction by 50% is given as the BD50.

[5] = tested on: guinea-pig isolated trachea; experiment: Anti-allergic activity in vitro: ovalbumin-induced contraction of isolated trachea from sensitized guinea pigs; design: species or system guinea pig (male Hartley); conditions: for activity at 100 µM / Emax at 100 µM: Cavia porcellus, mean ± S.E.; for activity at 100 µM: 0.2 h, 30 min pretreatment, 12 minutes after OA (0.1 μg/ml), decline P<0.05, read-out: OA-induced contractile force as percentage of vehicle-treated control; for Emax at 100 µM: prior to OA challenge, N=4, read-out: reduction of basal tone, as a percentage of the maximum response to carbachol; for inhibition of antigen-induced contraction (in words): guinea-pig isolated trachea, 100 μM
Method: The animals were injected intramuscularly with 0.7 ml of a 5.0% OA solution prepared in isotonic saline. Four weeks after sensitization tracheas were removed and cut into spiral strips. Each trachea was cut half, placed in 10-ml water-jacketed tissue baths and attached with biological tissue clips via silk suture to force displacement transducers for recording isometric tension. One half of each trachea served as a control for the corresponding drug-treated tissue. […] The tissue preparations were placed under 2 g passive tension and equilibrated for 60 minutes, during which time they were washed every 15 minutes with fresh buffer. Each tissue was pretreated for 45 minutes with meclofenamic acid (1 μM).
Tissues were pretreated with the compound under test (100 μM), or vehicle (0.4 mM NaOH) for 30 minutes prior to the addition of OA. OA (0.1 μg/ml) was added to all tissues and the contraction was monitored for 15 minutes. […] To evaluate effects of the test compounds, the degree of contraction was calculated 2 and 12 minutes after the addition of OA. OA-induced contraction of drug-treated tissues was expressed as a percentage of the response of vehicle-treated, paired controls.
Results are expressed as a mean ±S.E. of 4 experiments. Statistical significance of differences between the means of control and drug-treated groups was determined using a paired Student's t test.

[6] = target: T1, calmodulin insensitive cyclic GMP phosphodiesterase (Sus scrofa, UniProt A0A287B475); experiment: Inhibition of phosphodiesterase (PDE), cyclic GMP hydrolysis; type: biochemical, pig; conditions: 1 μM cyclic GMP, pH 7.5, 37° C.
T1 construct: Following dissection arteries were flash frozen in liquid nitrogen; from tissue; host or cells: pig pulmonary arteries or aortas, partially purified on DEAE-Sepharose, calmodulin-agarose and cibacron blue-agarose
Method: as §1
Fractions 2 and 3 were pooled and BIS-TRIS, MgCl2, CaCl2 added to final concentrations of 50 mM, 7 mM and 5 mM respectively. PMSF, leupeptin, antipain and pepstatin A were also added at the concentrations described above for these components. The pH of this pooled sample was corrected to 6.9.
The sample was applied, at a flow rate of 3 ml/hr, to a tandem column set up. The first column in the tandem was a 5 ml calmodulin-agarose column (Sigma) and the second a 1.5 ml cibacron blue 3GA-agarose column (Sigma). Both columns were pre-equilibrated with 50 mM BIS-TRIS, 5 mM MgCl2, 5 mM CaCl2, 5 mM benzamidine, 2 mM dithiothreitol pH 6.9. Following application of the sample the columns were washed with 20 ml of equilibration buffer.
The cibacron blue-agarose column was then disconnected and washed with a variety of buffers as indicated below (Buffer A=50 mM BIS-TRIS, 5 mM benzamidine, 2 mM dithiotheitol pH 7.0).
20 ml Buffer A+2M NaCl, 5 mM MgCl2
20 ml Buffer A+2M NaCl, 10 mM EDTA
PDE activity bound to the column was eluted with eight 2.5 ml aliquots of Buffer A containing 2M NaCl, 10 mM EDTA and 10 mM cGMP. Fractions found to contain PDE activity were pooled and concentrated to approximately 1/3 the original volume by dialysis for 2 hr against Buffer A:glycerol (50:50) containing 15 mM 2-mercaptoethanol, 2 mM EDTA. After dialysis the concentration of cGMP in the fraction was reduced by treatment using a PD-10 column (Pharmacia) using dialysis buffer.
The fraction produced was stored at -20° C. and for experiments diluted 50-fold and used as the source of PDE activity for the assay of compounds.
The standard reaction mixture contained, in a final volume of 100 μl,
1 μM 3', 5'-cGMP (including 0.1 μCi ^3 H-cGMP)
and buffered with 50 mM TRIS/5 mM MgCl2 pH 7.5. The reaction was initiated with enzyme, and was carried out at 37° C. for 5-10 minutes. The reaction was terminated by placing tubes in a boiling water bath for 2 minutes. […] Unreacted ^3 H-cGMP was washed from the column with 10×1 ml HEPES/NaCl buffer. Labelled […] was eluted into a scintillation vial with 6 ml 0.25M acetic acid and counted in a scintillation counter using 10 ml Instagel (Packard). […] Assays were performed in duplicate and values corrected for blanks of <2%.

Compound: Nc1nc2c(ncn2[C@@H]2O[C@@H]3COP(=O)(O)O[C@H]3[C@H]2O)c(=O)[nH]1 [cGMP]
Ratio of cGMP/cAMP hydrolysis ([1]; 1 μM substrate): 30
Km ([1]; substrate of the isolated PDE): 1.3 µM

Compound: CCCOc1ccccc1-c1nc2nc[nH]c2c(=O)[nH]1 [Example 1, 2-(2-Propoxyphenyl)-6-purinone]
antigen-induced bronchoconstriction (in words) ([2]; 60 minutes before OA challenge, N=4): significantly reduced antigen-induced bronchoconstriction
increase in total pulmonary resistance (RL) after OA challenge ([2]; 60 minutes before OA, 5 minutes after challenge, N=4, mean ± S.E., P<0.05 vs. vehicle (vehicle 162±40%)): 51±26%
dynamic lung compliance (CDYN) after OA challenge (in words) ([2]; 60 minutes before OA, 5 minutes after challenge, P<0.01 vs. vehicle): unchanged from baseline
ED50 [3]: 10.8 µmol/kg
ED50 [4]: 3.6 µmol/kg
activity at 100 µM [5]: 46 ± 9%
Emax at 100 µM [5]: 17 ± 3%
inhibition of antigen-induced contraction (in words) [5]: inhibit antigen-induced contraction of the guinea-pig isolated trachea

IC50 [6]: 1.25 µM
Compound: CCCOc1ccccc1-c1nc2[nH]c(=O)[nH]c2c(=O)[nH]1 [Example 5, 2-(2-Propoxyphenyl)purine-6,8-dione]
ED50 [3]: 3.7 µmol/kg
ED50 [4]: 1 µmol/kg
activity at 100 µM [5]: 60 ± 4%
Emax at 100 µM [5]: 24 ± 7%
inhibition of antigen-induced contraction (in words) [5]: inhibit antigen-induced contraction of the guinea-pig isolated trachea

Compound: CC(C)COc1ccccc1-c1nc2nc[nH]c2c(=O)[nH]1 [Example 4, 2-(2-Isobutoxyphenyl)-6-purinone]
IC50 [6]: 1.74 µM
ED50 [4]: 5.3 µmol/kg

Compound: CCCCOc1ccccc1-c1nc2[nH]c(=O)[nH]c2c(=O)[nH]1 [Example 8, 2-(2-Butoxyphenyl)purine-6,8-dione]
IC50 [6]: 6.79 µM
ED50 [4]: 1.5 µmol/kg

IC50 [6]: 5.26 µM
Compound: CCOc1ccccc1-c1nc2[nH]c(=O)[nH]c2c(=O)[nH]1 [Example 7, 2-(2-Ethoxyphenyl)purine-6,8-dione]
ED50 [4]: 3.6 µmol/kg

IC50 [6]: 4.49 µM
Compound: CCOc1ccccc1-c1nc2nc[nH]c2c(=O)[nH]1 [Example 2, 2-(2-Ethoxyphenyl)-6-purinone]
ED50 [4]: 6.5 µmol/kg

Compound: CCCCOc1ccccc1-c1nc2nc[nH]c2c(=O)[nH]1 [Example 3, 2-(2-Butoxyphenyl)-6-purinone]
IC50 [6]: 5.04 µM
ED50 [4]: 3.8 µmol/kg

Compound: CC(C)COc1ccccc1-c1nc2[nH]c(=O)[nH]c2c(=O)[nH]1 [Example 9, 2-(2-Isobutoxypheny)purine-6,8-dione]
IC50 [6]: 3.64 µM
ED50 [4]: 4.5 µmol/kg
